In PMC11661376, “A2B adenosine receptor-triggered intracellular calcium mobilization: Cell type-dependent involvement of Gi, Gq, Gs proteins and protein kinase C” (Research Square, 2024):

Biological target: T1, P2Y1 receptor (P2Y1R) (Homo sapiens, UniProt P47900)
T1 construct: gene P2RY1; native receptor in T24 and HEK293 cells
Test: agonist-induced intracellular Ca2+ mobilization (FLIPR) in T24 cells
Type: cell-based

T1 sequence (P47900 whole entry): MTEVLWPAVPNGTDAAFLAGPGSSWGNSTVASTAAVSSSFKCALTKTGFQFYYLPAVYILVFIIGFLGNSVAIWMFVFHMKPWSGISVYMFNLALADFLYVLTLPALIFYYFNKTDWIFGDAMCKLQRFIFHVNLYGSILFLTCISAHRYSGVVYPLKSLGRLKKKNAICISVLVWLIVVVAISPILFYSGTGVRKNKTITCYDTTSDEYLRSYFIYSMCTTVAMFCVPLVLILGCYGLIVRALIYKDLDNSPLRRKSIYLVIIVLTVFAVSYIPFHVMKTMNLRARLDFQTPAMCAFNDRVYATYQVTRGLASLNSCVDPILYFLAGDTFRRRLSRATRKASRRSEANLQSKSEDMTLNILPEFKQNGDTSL

`CSc1nc(N)c2ncn([C@H]3[C@H](O)[C@H](O)[C@]4(COP(=O)(O)OP(=O)(O)O)C[C@H]34)c2n1` [MRS2365] gave an EC50 of 1.38 ± 0.26 nM.
